# Reference: PMC7730549, “Design, Synthesis and Evaluation of New Bioactive Oxadiazole Derivatives as Anticancer Agents Targeting Bcl-2” (International Journal of Molecular Sciences, 2020)
# What was measured:
# His-tagged Bcl-2 protein = His-tagged Bcl-2 protein (Homo sapiens, UniProt P10415); assay: Competitive Bcl-2 ELISA binding assay (Bim peptide / His-tagged Bcl-2); conditions: for IC50: competition with biotinylated Bim peptide for His-tagged Bcl-2, mean ± SEM of three independent experiments; for Bcl-2 binding activity in the ELISA assay: competitive ELISA, Bim peptide
# Protocol: Compounds were evaluated according to their ability to compete with the pro-apoptotic BH3 domain Bim peptide for binding to His-tagged Bcl-2 protein, with a readout from anti-His secondary antibody conjugated to HRP (horseradish peroxidase) enzyme that produces a colorimetric readout in the presence of o-phenylenediamine (competitive ELISA assay).
# The ELISA assay to determine the ability of test compounds (10-fold dilution series) to compete with the interaction between biotinylated Bim peptide and His-tagged Bcl-2 protein was carried out according to our previously published protocol. The addition of anti-His antibody containing horseradish peroxidase enzyme, followed by the addition of o-phenylenediamine and hydrogen peroxide, allowed for the determination of optical density, using a plate reader (450 nm). The experiments were carried out on three separate occasions, including both negative and positive controls. A plot of log μM concentration for each inhibitor against the percentage reduction in affinity for the Bim peptide was created, using non-linear regression curve analysis (GraphPad Prism 5, San Diego, CA, USA) and the software used to generate the IC50 value for the Bcl-2 inhibitor.
# KG1a (AML) cells = assay: CellTiter-Blue cell viability assay, KG1a; assay type: cell-based, human; conditions: CellTitre-Blue assay, 24 h incubation, Bcl-2 +ve, mean of three independent experiments ±SEM
# Protocol: (§1) Evaluation of anti-proliferative activity for the new 2-(1H-indol-3-yl)-5-substituted-1,3,4-oxadiazoles (4a–m) was carried out in Bcl-2-expressing human metastatic breast (MDA-MB-231) and cervical (HeLa) cancer cell lines, using the MTT endpoint assay, following 72 h incubation of test compound, according to previously established protocols. Further analysis within the non-adherent leukemic cell lines KG1a (acute myelogenous leukemia, Bcl-2 +ve) and Jurkat (T-cell leukemia, Bcl-2 −ve,) was carried out by using the CellTiter-Blue® assay according to published precedent.
# (§2) Human acute myeloid leukemia KG1a and acute T-cell lymphocytic Jurkat cells were cultured and maintained as previously described. For each experiment 15,000 cells in 0.1 mL of medium were seeded into each well of a solid-black fluorescence 96-well plate and incubated for 24 h. The cells were then incubated with test compound (from 10 mM stock in DMSO), over a 10-fold dilution series, with concentrations ranging from 0.00001 to 100 μM and each diluent being performed in triplicate. Cells were incubated with test compound for 24 h, followed by treatment with CellTiter-Blue® solution and reading of fluorescence according to our previous protocol. Mean IC50 values were obtained by using GraphPad Prism 5 software (San Diego, CA, USA). For each concentration, three independent repeat experiments were carried out, to establish reproducibility.
# [1] = tested on: MDA-MB-231 (metastatic breast) cells; assay: MTT anti-proliferative assay, MDA-MB-231; assay type: cell-based, human; conditions: Bcl-2 expressing, mean of three independent experiments ±SEM
# Protocol: as §1
# (§3) Human breast cancer (MDA-MB-231) and cervical cancer (HeLa) cells, obtained from the ATCC (Manassas, VA, USA), were cultured and maintained as previously described. For each experiment, 3000 cells in 0.2 mL of medium were seeded into each well of a clear flat-bottomed 96-well plate and allowed to adhere for 24 h. The cells were then incubated with the test compound (from 10 mM stock in DMSO), over a 10-fold dilution series, with concentrations ranging from 0.00001 to 100 μM and each diluent being performed in triplicate. Cells were incubated with the test compound for 72 h, followed by treatment with 3-[4,5-dimethylthiazol-2-yl]-2,5-diphenyl tetrazolium bromide (MTT) solution and reading of absorbance (automated microplate) according to our previous protocol. Mean IC50 values were obtained by using GraphPad Prism 5 software (San Diego, CA, USA). For each concentration, three independent repeat experiments were carried out to establish reproducibility.
# [2] = tested on: Jurkat (T-cell leukemia) cells; assay: CellTiter-Blue cell viability assay, Jurkat; assay type: cell-based, human; conditions: for IC50: CellTitre-Blue assay, 24 h incubation, Bcl-2 −ve, mean of three independent experiments ±SEM
# Protocol: as §1, §2
# HeLa (cervical) cells = assay: MTT anti-proliferative assay, HeLa; assay type: cell-based, human; conditions: 72 h incubation, Bcl-2 expressing, mean of three independent experiments ±SEM
# Protocol: as §1, §3
# [3] = tested on: Bcl-2 expressing cell lines (MDA-MB-231, HeLa and KG1a); assay: Anti-proliferative activity across Bcl-2 expressing cell lines (MDA-MB-231, HeLa, KG1a); assay type: cell-based; conditions: Homo sapiens; MDA-MB-231, HeLa and KG1a taken together; read-out: IC50 values against Bcl-2 expressing cell lines
# Protocol: as §1
# Human breast cancer (MDA-MB-231) and cervical cancer (HeLa) cells, obtained from the ATCC (Manassas, VA, USA), were cultured and maintained as previously described. […] Cells were incubated with the test compound for 72 h, followed by treatment with 3-[4,5-dimethylthiazol-2-yl]-2,5-diphenyl tetrazolium bromide (MTT) solution and reading of absorbance (automated microplate) according to our previous protocol. […]
# Human acute myeloid leukemia KG1a and acute T-cell lymphocytic Jurkat cells were cultured and maintained as previously described. For each experiment 15,000 cells in 0.1 mL of medium were seeded into each well of a solid-black fluorescence 96-well plate and incubated for 24 h. […]
# [4] = Homo sapiens, MDA-MB-231, 72 h incubation
# His-tagged Bcl-2 protein, sequence (P10415 whole entry, the tested form may be a part): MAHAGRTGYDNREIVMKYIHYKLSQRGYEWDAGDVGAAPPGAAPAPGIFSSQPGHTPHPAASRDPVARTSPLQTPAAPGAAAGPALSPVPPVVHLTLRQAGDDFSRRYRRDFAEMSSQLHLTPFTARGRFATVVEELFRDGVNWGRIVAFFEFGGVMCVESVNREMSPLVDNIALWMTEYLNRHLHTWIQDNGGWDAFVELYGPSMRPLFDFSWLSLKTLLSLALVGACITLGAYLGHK
IC50 (His-tagged Bcl-2 protein),IC50 ([1]; 72 h incubation),IC50 [2],IC50 (HeLa (cervical) cells),melting point,"IC50 [1, 4]","IC50 ([2]; Homo sapiens, Jurkat)","IC50 (HeLa (cervical) cells; Homo sapiens, HeLa)",Bcl-2 binding activity in the ELISA assay (His-tagged Bcl-2 protein),binding potency relative to positive control gossypol (His-tagged Bcl-2 protein; Bcl-2 ELISA binding affinity assay),IC50 [3],Compound,IC50 (KG1a (AML) cells),"IC50 (KG1a (AML) cells; Homo sapiens, KG-1a)","inhibitory effect in the Bcl-2 negative cell line ([2]; Jurkat, Bcl-2 negative)"
840 ± 50 nM,1790 ± 70 nM,57400 ± 580 nM,1190 ± 400 nM,–,–,–,–,–,–,–,"2-(1H-Indol-3-yl)-5-(5-methoxy-1H-indol-2-yl)-1,3,4-oxadiazole [Compound 4m]",1870 ± 140 nM,–,–
–,–,–,–,210 to 212 °C,6020 ± 120 nM,60590 ± 120 nM,920 ± 80 nM,–,–,–,"COc1ccc(-c2nnc(-c3c[nH]c4ccccc34)o2)cc1 [Compound 4h, 2-(1H-Indol-3-yl)-5-(4-methoxyphenyl)-1,3,4-oxadiazole]",–,2210 ± 100 nM,–
21000 ± 1090 nM,–,–,–,221 to 222 °C,1190 ± 100 nM,12200 ± 1130 nM,1220 ± 900 nM,only moderate Bcl-2 binding activity,–,–,"COc1cc(-c2nnc(-c3c[nH]c4ccccc34)o2)cc(OC)c1OC [Compound 4i, 2-(1H-Indol-3-yl)-5-(3,4,5-trimethoxyphenyl)-1,3,4-oxadiazole]",–,975 ± 20 nM,–
330 ± 50 nM,–,–,–,224 to 226 °C,520 ± 150 nM,> 100000 nM,880 ± 160 nM,–,two-fold more potent,520 to 880 nM,"FC(F)(F)c1ccc(-c2nnc(-c3c[nH]c4ccccc34)o2)cc1 [Compound 4j, 2-(1H-Indol-3-yl)-5-(4-trifluoromethylphenyl)-1,3,4-oxadiazole]",–,730 ± 90 nM,no inhibitory effects
430 ± 50 nM,–,–,–,198 to 200 °C,920 ± 190 nM,> 100000 nM,1280 ± 350 nM,–,–,–,"Cc1ccc(-c2nnc(-c3c[nH]c4ccccc34)o2)cc1 [Compound 4k, 2-(1H-Indol-3-yl)-5-(4-methylphenyl)-1,3,4-oxadiazole]",–,1470 ± 130 nM,–
–,–,–,–,240 to 242 °C,2970 ± 60 nM,61400 ± 1400 nM,1520 ± 30 nM,–,–,–,"c1ccc2c(-c3nnc(-c4ccc(N5CCCCC5)nc4)o3)c[nH]c2c1 [Compound 4l, 2-(1H-Indol-3-yl)-5-(6-(piperidin-1-yl)-pyridin-3-yl)-1,3,4-oxadiazole]",–,4500 ± 310 nM,–

# More lines, now with the values behind:
Compound,IC50 (His-tagged Bcl-2 protein),IC50 ([1]; 72 h incubation),IC50 [2],IC50 (HeLa (cervical) cells),melting point,"IC50 [1, 4]","IC50 ([2]; Homo sapiens, Jurkat)","IC50 (HeLa (cervical) cells; Homo sapiens, HeLa)",Bcl-2 binding activity in the ELISA assay (His-tagged Bcl-2 protein),binding potency relative to positive control gossypol (His-tagged Bcl-2 protein; Bcl-2 ELISA binding affinity assay),IC50 [3],IC50 (KG1a (AML) cells),"IC50 (KG1a (AML) cells; Homo sapiens, KG-1a)","inhibitory effect in the Bcl-2 negative cell line ([2]; Jurkat, Bcl-2 negative)"
"Fc1ccc(OCc2nnc(-c3c[nH]c4ccccc34)o2)cc1 [Compound 4a, 2-(1H-Indol-3-yl)-5-(4-fluorophenoxymethyl)-1,3,4-oxadiazole]",–,–,–,–,210 to 212 °C,36100 ± 3400 nM,> 100000 nM,12900 ± 1330 nM,–,–,–,–,> 100000 nM,–
"Cc1ccc(OCc2nnc(-c3c[nH]c4ccccc34)o2)cc1 [Compound 4b, 2-(1H-Indol-3-yl)-5-(4-methylphenoxymethyl)-1,3,4-oxadiazole]",> 100000 nM,–,–,–,201 to 203 °C,31500 ± 4800 nM,> 100000 nM,13300 ± 320 nM,inactive,–,–,–,> 100000 nM,–
"CC(C)(C)c1ccc(OCc2nnc(-c3c[nH]c4ccccc34)o2)cc1 [Compound 4c, 2-(1H-Indol-3-yl)-5-(4-tert-butylphenoxymethyl)-1,3,4-oxadiazole]",1170 ± 130 nM,–,–,–,218 to 220 °C,3500 ± 160 nM,> 100000 nM,900 ± 30 nM,–,–,–,–,3450 ± 800 nM,–
"c1ccc(OCc2nnc(-c3c[nH]c4ccccc34)o2)cc1 [Compound 4d, 2-(1H-Indol-3-yl)-5-(phenoxymethyl)-1,3,4-oxadiazole]",1410 ± 10 nM,–,–,–,195 to 197 °C,1630 ± 80 nM,> 100000 nM,570 ± 40 nM,–,–,–,–,2560 ± 70 nM,–
"COc1cccc(Cc2nnc(-c3c[nH]c4ccccc34)o2)c1 [Compound 4e, 2-(1H-Indol-3-yl)-5-(3-methoxybenzyl)-1,3,4-oxadiazole]",2720 ± 200 nM,–,–,–,208 to 210 °C,6280 ± 200 nM,> 100000 nM,3140 ± 140 nM,–,–,–,–,3660 ± 150 nM,–
"c1ccc(Cc2nnc(-c3c[nH]c4ccccc34)o2)cc1 [Compound 4f, 2-(1H-Indol-3-yl)-5-benzyl-1,3,4-oxadiazole]",–,–,–,–,187 to 189 °C,> 100000 nM,> 100000 nM,> 100000 nM,–,–,–,–,> 100000 nM,–
"O=[N+]([O-])c1ccc(-c2nnc(-c3c[nH]c4ccccc34)o2)cc1 [Compound 4g, 2-(1H-Indol-3-yl)-5-(4-nitrophenyl)-1,3,4-oxadiazole]",–,–,–,–,215 to 217 °C,6950 ± 500 nM,> 100000 nM,1600 ± 120 nM,–,–,–,–,> 100000 nM,–
